Data published in PubChem BioAssay AID1963860 (Molecular Pharmacology Branch, DTP, NCI, 2024).

System: CN0375-F725-PDC KRAS spheroid viability
Assay: Anticancer human tumor CN0375-F725-PDC patient-derived colon carcinoma cell line growth inhibition [KRAS2]
Conditions: spheroids with HUVEC and MSC; for IC50: curve of first compound; for viability, T/C: stronger effect = lower value
How it was run: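 Combination screen of spheroid viability in tumor-cell co-cultures with endothelial (HUVEC) and mesenchymal stem cell stroma. Each agent was tested in half-log dilutions, topping at clinical Cmax or at 10 microM without a known Cmax.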

[1] = second compound 0.0316 µM, first compound 0.0316 µM
[2] = second compound 0.0316 µM, first compound 0.1 µM
[3] = second compound 0.0316 µM, first compound 0.316 µM
[4] = second compound 0.0316 µM, first compound 1 µM
[5] = second compound 0.1 µM, first compound 0.0316 µM
[6] = second compound 0.1 µM, first compound 0.1 µM
[7] = second compound 0.1 µM, first compound 0.316 µM
[8] = second compound 0.1 µM, first compound 1 µM
[9] = second compound 0.316 µM, first compound 0.0316 µM
[10] = second compound 0.316 µM, first compound 0.1 µM
[11] = second compound 0.316 µM, first compound 0.316 µM
[12] = second compound 0.316 µM, first compound 1 µM
[13] = second compound 1 µM, first compound 0.0316 µM
[14] = second compound 1 µM, first compound 0.1 µM
[15] = second compound 1 µM, first compound 0.316 µM
[16] = second compound 1 µM, first compound 1 µM
[17] = second compound 3.16 µM, first compound 0.0316 µM
[18] = second compound 3.16 µM, first compound 0.1 µM
[19] = second compound 3.16 µM, first compound 0.316 µM
[20] = second compound 3.16 µM, first compound 1 µM
[21] = second compound 0.0316 µM, first compound 0.00316 µM
[22] = second compound 0.0316 µM, first compound 0.01 µM
[23] = second compound 0.1 µM, first compound 0.00316 µM
[24] = second compound 0.1 µM, first compound 0.01 µM
[25] = second compound 0.316 µM, first compound 0.00316 µM
[26] = second compound 0.316 µM, first compound 0.01 µM
[27] = second compound 1 µM, first compound 0.00316 µM
[28] = second compound 1 µM, first compound 0.01 µM
[29] = second compound 3.16 µM, first compound 0.00316 µM
[30] = second compound 3.16 µM, first compound 0.01 µM
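Also: spheroids exposed to agents for 7 days.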

| Structure (SMILES) | IC50 (second compound 0.0316 µM) | IC50 (second compound 0.1 µM) | IC50 (second compound 0.316 µM) | IC50 (second compound 1 µM) | IC50 (second compound 3.16 µM) | viability, T/C [1] | viability, T/C [2] | viability, T/C [3] | viability, T/C [4] | viability, T/C [5] | viability, T/C [6] | viability, T/C [7] | viability, T/C [8] | viability, T/C [9] | viability, T/C [10] | viability, T/C [11] | viability, T/C [13] | viability, T/C [14] | viability, T/C [17] | viability, T/C [18] | further results |
| --- | --- | --- | --- | --- | --- | --- | --- | --- | --- | --- | --- | --- | --- | --- | --- | --- | --- | --- | --- | --- | --- |
| CC(C)NCC(C(=O)N1CCN(c2ncnc3c2C(C)CC3O)CC1)c1ccc(Cl)cc1 (stereo not given) + C=CC(=O)N1CCN(c2nc(OCC3CCCN3C)nc3c2CCN(c2cccc4cccc(C)c24)C3)CC1CC#N | > 10000 nM | > 10000 nM | > 10000 nM | > 10000 nM | < 31.6 nM | 106% | 105% | 101% | 93% | 106% | 103% | 98% | 91.7% | 101% | 108% | 94.6% | 103% | 102% | 19.5% | 14.7% | viability, T/C (second compound 0.0316 µM, first compound 3.16 µM): 94.2%; viability, T/C (second compound 0.0316 µM, first compound 10 µM): 83.2%; viability, T/C (second compound 0.1 µM, first compound 3.16 µM): 91.4%; viability, T/C (second compound 0.1 µM, first compound 10 µM): 78.2%; viability, T/C [12]: 87.8%; viability, T/C (second compound 0.316 µM, first compound 3.16 µM): 85.3%; viability, T/C (second compound 0.316 µM, first compound 10 µM): 71.4%; viability, T/C [15]: 92.5%; viability, T/C [16]: 76.8%; viability, T/C (second compound 1 µM, first compound 3.16 µM): 70.9%; viability, T/C (second compound 1 µM, first compound 10 µM): 58.2%; viability, T/C [19]: 13.5%; viability, T/C [20]: 4.72%; viability, T/C (second compound 3.16 µM, first compound 3.16 µM): 3.97%; viability, T/C (second compound 3.16 µM, first compound 10 µM): 1.46% |
| CCN1CCN(Cc2ccc(Nc3ncc(F)c(-c4cc(F)c5nc(C)n(C(C)C)c5c4)n3)nc2)CC1 + C=CC(=O)N1CCN(c2nc(OCC3CCCN3C)nc3c2CCN(c2cccc4cccc(C)c24)C3)CC1CC#N | > 1000 nM | > 1000 nM | > 1000 nM | > 1000 nM | < 3.16 nM | 90.5% | 91.8% | 111% | 99.8% | 88.1% | 94.6% | 104% | 91.2% | 85.5% | 89.4% | 95.2% | 86.9% | 83.9% | 17.9% | 15.3% | viability, T/C [21]: 110%; viability, T/C [22]: 94.4%; viability, T/C [23]: 103%; viability, T/C [24]: 96.8%; viability, T/C [25]: 104%; viability, T/C [26]: 99.7%; viability, T/C [12]: 91.5%; viability, T/C [27]: 95.4%; viability, T/C [28]: 99.6%; viability, T/C [15]: 85.1%; viability, T/C [16]: 89.8%; viability, T/C [29]: 34.7%; viability, T/C [30]: 31.3%; viability, T/C [19]: 20.3%; viability, T/C [20]: 1.83% |
| Cn1ncnc1[C@H]1c2n[nH]c(=O)c3cc(F)cc(c23)N[C@@H]1c1ccc(F)cc1 + C=CC(=O)N1CCN(c2nc(OCC3CCCN3C)nc3c2CCN(c2cccc4cccc(C)c24)C3)CC1CC#N | > 100 nM | > 100 nM | > 100 nM | > 100 nM | < 0.316 nM | 97.6% | 99.6% |  |  | 100% | 91.8% |  |  | 101% | 87% |  | 90.9% | 86.2% | 14.4% | 14.3% | viability, T/C (second compound 0.0316 µM, first compound 0.000316 µM): 99.6%; viability, T/C (second compound 0.0316 µM, first compound 0.001 µM): 105%; viability, T/C [21]: 99.2%; viability, T/C [22]: 103%; viability, T/C (second compound 0.1 µM, first compound 0.000316 µM): 106%; viability, T/C (second compound 0.1 µM, first compound 0.001 µM): 105%; viability, T/C [23]: 96.9%; viability, T/C [24]: 94.3%; viability, T/C (second compound 0.316 µM, first compound 0.000316 µM): 95.9%; viability, T/C (second compound 0.316 µM, first compound 0.001 µM): 107%; viability, T/C [25]: 100%; viability, T/C [26]: 95.9%; viability, T/C (second compound 1 µM, first compound 0.000316 µM): 97.6%; viability, T/C (second compound 1 µM, first compound 0.001 µM): 99%; viability, T/C [27]: 93.7%; viability, T/C [28]: 87.7%; viability, T/C (second compound 3.16 µM, first compound 0.000316 µM): 14.6%; viability, T/C (second compound 3.16 µM, first compound 0.001 µM): 13.1%; viability, T/C [29]: 20.2%; viability, T/C [30]: 16.1% |
